Measurements as given in paper PMC12523642, “Unveiling the Bioactive Potential of Allium colchicifolium Boiss Bulb Flavonoids: Anti-cancer Activities, and Computational Exploration of Anti-angiogenic Mechanisms” (Iranian Journal of Pharmaceutical Research : IJPR, 2025).
Converted amounts (≈) assume the structure as drawn. Like-named read-outs stand apart in the source and are kept apart here.

Tests used:
[1] = test system: VEGF receptor-2 and angiogenesis cellular signaling pathways; settings: 25 µM; cited from earlier work
[2] = test system: mice VEGF serum levels; parameters: method as in PMID 23867787; settings: 20 mg/kg; by reducing mice VEGF serum levels; cited from earlier work
[3] = MTT cytotoxicity assay on HUVEC (normal cell line); type: cell-based; settings: human, HUVEC (umbilical vein endothelial cells), mean ± SD, read-out: Cytotoxic activity IC50, HUVEC
Procedure: (§1) Cancer cell lines, including PC3 NCBI-C427 (human prostate adenocarcinoma), HeLa NCBI-C115 (human cervix carcinoma), MCF7 NCBI-C135 (human breast adenocarcinoma), and a normal cell line, human umbilical vein endothelial cell (HUVEC) NCBI-C554, were purchased from the Pasteur Institute of Tehran, Iran. Cells were cultured and maintained in Dulbecco’s modified Eagle’s medium (DMEM) supplemented with 10% fetal bovine serum (FBS) and 2% (v/v) streptomycin-penicillin in a humidified incubator with a 5% CO2 atmosphere at 37°C. Passages 2 to 3 of the cells were utilized for the cytotoxicity assay ([18]).
(§2) The MTT assay was used to determine the cytotoxic activities of the MeOH extract, isolated compounds (1 - 3), and doxorubicin (as a positive control) on human cancer cell lines. For the MTT assay, concentrations (1, 5, 10, 25, 50, 100 µg) of the samples were prepared in DMEM as diluent and incubated with cells (10^5 cells/mL) for 24 hours in 96-well plates. Then, the MTT powder was added to the wells and incubated for 4 hours at 37°C. Absorbance was measured at 570 nm using a microplate reader. The experiment was performed in triplicate, and cell viability percentages were calculated by the following equation: […]. The negative control was untreated cells. The cytotoxicity IC50 value for the extracts was defined as the concentration that reduces 50% cell viability ([19]).

[4] = test system: MCF7 (human breast adenocarcinoma); experiment: MTT cytotoxicity assay on MCF-7; type: cell-based; settings: MCF7, 24 h, mean ± SD, read-out: Cytotoxic activity IC50, MCF-7
Procedure: as §1, §2

[5] = test system: PC3 (human prostate adenocarcinoma); experiment: MTT cytotoxicity assay on PC3; type: cell-based; settings: 24 h, mean ± SD, read-out: Cytotoxic activity IC50, PC3
Procedure: as §1, §2

[6] = test system: chicken chorioallantoic membrane (CAM); experiment: Chick chorioallantoic membrane (CAM) anti-angiogenesis assay; type: in vivo; settings: Gallus gallus, read-out: Anti-angiogenesis IC50 (50% inhibition of angiogenesis)
Procedure: The anti-angiogenesis activities of the MeOH extract and isolated compounds ([1]-[3]) were evaluated using the chicken chorioallantoic membrane (CAM) model. Briefly, pathogen-free fertilized chicken eggs were purchased from Baharan Parent Stock Company, Kermanshah, Iran, and incubated at 37°C with 75% humidity for 7 days. Then, square windows (1 cm^2) were opened in the outer shell of the eggs, and different concentrations of samples were loaded. After 48 hours, the zones around the discs were photographed with a digital camera and macroscopically assayed for neovascular zones of CAM in each treatment group. The effects on local vessel density within a 10 cm^2 area surrounding the windows were measured in each treatment group using AngioSoft software (V, 2019) ([12], [13]). The study was done in triplicate for each experimental group (8 eggs). The anti-angiogenesis IC50 value for the extracts was reported as the concentration that reduces 50% angiogenesis compared to the blank disk.
The results of the anti-angiogenesis activities of isolated flavonoids (1 - 3) and the MeOH extract of A. colchicifolium bulbs on the CAM model of angiogenesis are shown in Figure 2A and B. The IC50 of each compound was considered as the concentration that caused 50% inhibition of angiogenesis in a 100 mm^2 area surrounding each sample disc compared to the negative control disc (distilled water).

[7] = test system: HeLa (human cervix carcinoma); experiment: MTT cytotoxicity assay on HeLa; type: cell-based; settings: 24 hours, mean ± SD, read-out: Cytotoxic activity IC50, HeLa
Procedure: as §1, §2

[8] = test system: CAM model; settings: 10 nM; by blocking matrix metalloproteinase-2 gene expression; cited from earlier work
[9] = CAM model, 48 hours, compared to negative control disc

Row | SMILES | Anti-angiogenesis activities [1] | Inhibition of angiogenesis [2] | IC50 at 24 h [3] [µg/mL] | IC50 [4] [µg/mL] | IC50 [5] [µg/mL] | IC50 [6, 9] [µg/mL] | IC50 [7] [µg/mL] | Anti-angiogenesis on the CAM model [8] | IC50 ([6]; 48 h) [µg/mL]
1 | COc1ccc(-c2oc3c(C)c(OC)cc(OC)c3c(=O)c2OC)cc1OC [8-methylquercetin-3,5,7,3',4'-pentamethyl ether, reference compound] | demonstrated anti-angiogenesis activities | – | – | – | – | – | – | – | –
2 | C[C@@H]1O[C@@H](OC[C@H]2O[C@@H](Oc3c(-c4ccc(O)c(O)c4)oc4cc(O)cc(O)c4c3=O)[C@H](O)[C@@H](O)[C@@H]2O)[C@H](O)[C@H](O)[C@H]1O [Compound 1, quercetin 3-O-rutinoside] | – | inhibited angiogenesis | 9.35 ± 0.8 (≈ 15.3 µM) | 3.16 ± 0.3 (≈ 5.18 µM) | 2.96 ± 0.16 (≈ 4.85 µM) | 7.12 ± 0.1 (≈ 11.7 µM) | 6.95 ± 0.32 (≈ 11.4 µM) | – | –
3 | COc1cc(-c2oc3cc(O)cc(O)c3c(=O)c2O[C@@H]2O[C@H](CO)[C@@H](O)[C@H](O)[C@H]2O)ccc1O [Compound 2, isorhamnetin 3-O-glucoside] | – | – | 9.96 ± 0.37 (≈ 20.8 µM) | 2.58 ± 0.21 (≈ 5.39 µM) | 1.72 ± 0.02 (≈ 3.6 µM) | 6 ± 0.21 (≈ 12.5 µM) | 8.43 ± 0.32 (≈ 17.6 µM) | – | –
4 | O=c1c(O)c(-c2ccc(O)c(O)c2)oc2cc(O)cc(O)c12 [Compound 3, quercetin] | demonstrated anti-angiogenesis activities | – | 7.23 ± 0.29 (≈ 23.9 µM) | ≤ 3 | ≤ 3 | – | 6.17 ± 0.13 (≈ 20.4 µM) | exhibited anti-angiogenesis | 5.3 ± 0.3 (≈ 17.5 µM)
5 | COc1cccc2c1C(=O)c1c(O)c3c(c(O)c1C2=O)C[C@@](O)(C(=O)CO)C[C@@H]3O[C@H]1C[C@H](N)[C@H](O)[C@H](C)O1 [Doxorubicin, doxorubicin, reference compound] | – | – | 0.045 ± 0.006 (≈ 0.0828 µM) | 0.034 ± 0.01 (≈ 0.0626 µM) | 0.051 ± 0.004 (≈ 0.0938 µM) | – | 0.066 ± 0.007 (≈ 0.121 µM) | – | –
